Tests used:
Assay in all cases: KinaseProfiler off-target kinase profiling
Assay type in all cases: biochemical
Conditions in all cases: 10 μM, ATP near Km
SGK2 = SGK2 (Homo sapiens (Human), UniProt Q9HBY8)
Protocol: (§1) Two representative compounds (Example 2, 14) of the invention were tested for off-target kinase activity at a concentration of 10 μM by Millipore, Inc. in their KinaseProfiler™ service against all the kinases available in their full kinase panel. These compounds were run in duplicate at a concentration of ATP near the Km for each individual kinase according to Millipore's specifications. The results are shown in Table B. Data are reported as percent of control (POC) and are the average of the two replicates.

ARK5 = ARK5 (Homo sapiens (Human), UniProt O60285)
Protocol: as §1

Syk = Syk (Homo sapiens (Human), UniProt P43405)
Protocol: as §1

CDK5/p35 = CDK5/p35 (Homo sapiens (Human), UniProt Q00535)
Protocol: as §1

DMPK = DMPK (Homo sapiens (Human), UniProt Q09013)
DMPK, sequence (Q09013 whole entry): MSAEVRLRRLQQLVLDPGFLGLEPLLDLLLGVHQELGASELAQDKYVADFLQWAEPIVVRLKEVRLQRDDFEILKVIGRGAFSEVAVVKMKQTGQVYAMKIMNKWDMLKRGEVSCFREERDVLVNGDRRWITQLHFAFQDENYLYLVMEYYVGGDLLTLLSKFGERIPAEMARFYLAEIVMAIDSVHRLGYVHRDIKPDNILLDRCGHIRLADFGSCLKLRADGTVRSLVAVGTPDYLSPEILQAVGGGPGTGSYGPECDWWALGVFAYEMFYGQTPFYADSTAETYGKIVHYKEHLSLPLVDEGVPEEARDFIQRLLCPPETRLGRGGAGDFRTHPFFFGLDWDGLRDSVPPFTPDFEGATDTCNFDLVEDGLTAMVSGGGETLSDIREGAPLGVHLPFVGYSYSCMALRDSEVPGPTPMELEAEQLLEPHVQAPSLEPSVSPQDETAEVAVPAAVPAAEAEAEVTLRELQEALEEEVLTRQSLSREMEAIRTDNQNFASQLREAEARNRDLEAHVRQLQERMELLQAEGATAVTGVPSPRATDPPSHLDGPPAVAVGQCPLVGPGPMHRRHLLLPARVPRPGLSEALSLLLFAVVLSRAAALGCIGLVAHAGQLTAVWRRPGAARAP
Protocol: as §1

ULK3 = ULK3 (Homo sapiens (Human), UniProt Q6PHR2)
Protocol: as §1

Met = Met (Homo sapiens (Human), UniProt P08581)
Protocol: as §1

mTOR = mTOR (Homo sapiens (Human), UniProt P42345)
Protocol: as §1

MST1 = MST1 (Homo sapiens (Human), UniProt Q13043)
MST1, sequence (Q13043 whole entry): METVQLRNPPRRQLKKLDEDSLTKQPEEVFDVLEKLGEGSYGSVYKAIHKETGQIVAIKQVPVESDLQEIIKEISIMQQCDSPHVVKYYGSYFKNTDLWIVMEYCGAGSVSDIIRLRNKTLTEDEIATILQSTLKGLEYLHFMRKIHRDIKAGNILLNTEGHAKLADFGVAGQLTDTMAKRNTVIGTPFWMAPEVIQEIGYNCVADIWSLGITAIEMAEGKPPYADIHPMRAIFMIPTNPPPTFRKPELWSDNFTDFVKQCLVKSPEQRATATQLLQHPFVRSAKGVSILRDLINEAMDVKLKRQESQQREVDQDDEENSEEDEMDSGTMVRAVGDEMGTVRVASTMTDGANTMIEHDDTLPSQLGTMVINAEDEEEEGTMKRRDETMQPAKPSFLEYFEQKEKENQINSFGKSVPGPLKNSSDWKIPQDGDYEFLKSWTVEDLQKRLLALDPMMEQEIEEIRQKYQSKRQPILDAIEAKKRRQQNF
Protocol: as §1

LIMK1 = LIMK1 (Homo sapiens (Human), UniProt P53667)
LIMK1, sequence (P53667 whole entry): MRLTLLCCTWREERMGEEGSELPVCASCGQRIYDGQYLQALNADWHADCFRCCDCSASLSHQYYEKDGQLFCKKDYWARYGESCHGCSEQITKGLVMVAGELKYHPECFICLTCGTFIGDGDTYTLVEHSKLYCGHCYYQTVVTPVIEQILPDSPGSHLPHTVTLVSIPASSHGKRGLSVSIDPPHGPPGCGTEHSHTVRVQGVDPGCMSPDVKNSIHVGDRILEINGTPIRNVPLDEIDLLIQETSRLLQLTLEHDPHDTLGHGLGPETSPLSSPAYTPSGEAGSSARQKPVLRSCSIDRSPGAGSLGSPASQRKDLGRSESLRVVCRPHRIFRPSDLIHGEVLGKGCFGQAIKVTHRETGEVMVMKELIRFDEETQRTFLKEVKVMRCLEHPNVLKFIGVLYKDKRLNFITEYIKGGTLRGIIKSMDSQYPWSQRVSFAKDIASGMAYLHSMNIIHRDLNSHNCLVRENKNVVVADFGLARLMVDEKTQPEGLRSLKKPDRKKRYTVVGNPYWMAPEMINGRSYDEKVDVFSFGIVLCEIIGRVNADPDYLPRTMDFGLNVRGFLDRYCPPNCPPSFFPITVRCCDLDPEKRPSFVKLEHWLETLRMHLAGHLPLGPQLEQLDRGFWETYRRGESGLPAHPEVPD
Protocol: as §1

PTK5 = PTK5 (Homo sapiens (Human), UniProt P42685)
PTK5, sequence (P42685 whole entry): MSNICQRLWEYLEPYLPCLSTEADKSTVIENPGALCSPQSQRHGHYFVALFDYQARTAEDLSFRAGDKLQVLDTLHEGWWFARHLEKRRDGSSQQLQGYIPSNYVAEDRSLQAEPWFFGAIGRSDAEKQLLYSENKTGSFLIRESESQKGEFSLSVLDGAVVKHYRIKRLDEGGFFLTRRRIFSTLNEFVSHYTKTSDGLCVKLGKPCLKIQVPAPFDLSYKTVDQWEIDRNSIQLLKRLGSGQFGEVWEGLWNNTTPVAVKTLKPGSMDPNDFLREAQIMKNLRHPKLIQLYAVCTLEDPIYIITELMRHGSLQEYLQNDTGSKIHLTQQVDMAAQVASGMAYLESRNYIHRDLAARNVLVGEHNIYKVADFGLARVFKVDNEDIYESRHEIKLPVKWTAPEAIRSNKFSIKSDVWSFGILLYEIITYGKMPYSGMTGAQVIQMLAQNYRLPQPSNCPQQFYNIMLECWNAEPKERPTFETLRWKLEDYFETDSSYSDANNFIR
Protocol: as §1

CK1_y = test system: CK1_y
Protocol: as §1

BrSK1 = BrSK1 (Homo sapiens (Human), UniProt Q8TDC3)
BrSK1, sequence (Q8TDC3 whole entry): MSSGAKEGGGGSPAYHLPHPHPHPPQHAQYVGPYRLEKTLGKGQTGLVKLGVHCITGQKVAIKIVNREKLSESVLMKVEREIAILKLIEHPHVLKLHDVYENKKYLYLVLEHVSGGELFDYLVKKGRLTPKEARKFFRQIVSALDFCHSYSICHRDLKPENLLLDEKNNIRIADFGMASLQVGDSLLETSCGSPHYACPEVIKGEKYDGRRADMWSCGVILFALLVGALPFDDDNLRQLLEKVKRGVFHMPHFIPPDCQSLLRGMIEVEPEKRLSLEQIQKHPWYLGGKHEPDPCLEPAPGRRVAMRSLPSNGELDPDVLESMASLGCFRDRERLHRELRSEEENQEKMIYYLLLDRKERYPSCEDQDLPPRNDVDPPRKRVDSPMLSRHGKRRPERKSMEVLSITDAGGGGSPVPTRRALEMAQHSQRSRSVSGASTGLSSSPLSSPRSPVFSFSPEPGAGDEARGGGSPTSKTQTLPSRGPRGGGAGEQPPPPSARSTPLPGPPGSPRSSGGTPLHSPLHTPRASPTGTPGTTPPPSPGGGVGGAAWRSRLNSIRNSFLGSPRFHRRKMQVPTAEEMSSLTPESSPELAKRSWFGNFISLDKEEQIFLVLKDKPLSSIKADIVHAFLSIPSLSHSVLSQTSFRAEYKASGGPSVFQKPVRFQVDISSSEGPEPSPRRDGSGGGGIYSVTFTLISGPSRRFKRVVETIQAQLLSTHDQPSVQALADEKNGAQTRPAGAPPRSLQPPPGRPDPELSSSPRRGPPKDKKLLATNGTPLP
Protocol: as §1

ALK4 = ALK4 (Homo sapiens (Human), UniProt P36896)
Protocol: as §1

DYRK2 = DYRK2 (Homo sapiens (Human), UniProt Q92630)
Protocol: as §1

Mer = Mer (Homo sapiens (Human), UniProt Q12866)
Protocol: as §1

AKT3 = AKT3 (Homo sapiens (Human), UniProt Q9Y243)
Protocol: as §1

Flt3 = Flt3 (Homo sapiens (Human), UniProt P36888)
Protocol: as §1

Txk = Txk (Homo sapiens (Human), UniProt P42681)
Txk, sequence (P42681 whole entry): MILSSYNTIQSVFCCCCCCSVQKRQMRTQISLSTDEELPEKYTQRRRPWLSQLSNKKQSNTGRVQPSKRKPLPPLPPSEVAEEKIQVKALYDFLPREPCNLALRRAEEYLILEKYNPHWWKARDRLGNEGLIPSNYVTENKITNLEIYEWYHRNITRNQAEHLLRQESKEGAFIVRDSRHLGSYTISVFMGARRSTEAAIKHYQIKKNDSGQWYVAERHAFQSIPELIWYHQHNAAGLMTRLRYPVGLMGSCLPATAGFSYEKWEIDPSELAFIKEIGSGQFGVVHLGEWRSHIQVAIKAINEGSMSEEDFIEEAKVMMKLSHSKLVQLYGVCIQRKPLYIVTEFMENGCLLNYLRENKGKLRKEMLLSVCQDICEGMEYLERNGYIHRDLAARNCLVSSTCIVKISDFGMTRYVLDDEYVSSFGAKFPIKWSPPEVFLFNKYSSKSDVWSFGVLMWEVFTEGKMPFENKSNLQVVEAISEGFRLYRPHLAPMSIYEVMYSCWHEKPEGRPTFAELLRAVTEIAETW
Protocol: as §1

BLK = test system: BLK
Protocol: as §1

Yes = Yes (Homo sapiens (Human), UniProt P07947)
Protocol: as §1

GSK3beta = GSK3beta (Homo sapiens (Human), UniProt P49841)
GSK3beta, sequence (P49841 whole entry): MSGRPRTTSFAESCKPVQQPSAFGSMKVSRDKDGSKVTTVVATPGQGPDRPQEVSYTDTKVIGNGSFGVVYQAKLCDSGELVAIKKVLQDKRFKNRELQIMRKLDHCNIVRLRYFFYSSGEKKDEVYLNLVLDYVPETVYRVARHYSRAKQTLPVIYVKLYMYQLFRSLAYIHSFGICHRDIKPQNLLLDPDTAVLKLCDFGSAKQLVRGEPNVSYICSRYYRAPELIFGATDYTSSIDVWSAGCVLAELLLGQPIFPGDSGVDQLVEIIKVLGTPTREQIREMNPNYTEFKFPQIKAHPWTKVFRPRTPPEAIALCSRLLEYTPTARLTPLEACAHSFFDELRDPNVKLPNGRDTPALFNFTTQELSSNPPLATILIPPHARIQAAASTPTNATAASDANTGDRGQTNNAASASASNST
Protocol: as §1

TEC Activated = TEC Activated (Homo sapiens (Human), UniProt P42680)
Protocol: as §1

Pim-2 = Pim-2 (Homo sapiens (Human), UniProt Q9P1W9)
Pim-2, sequence (Q9P1W9 whole entry): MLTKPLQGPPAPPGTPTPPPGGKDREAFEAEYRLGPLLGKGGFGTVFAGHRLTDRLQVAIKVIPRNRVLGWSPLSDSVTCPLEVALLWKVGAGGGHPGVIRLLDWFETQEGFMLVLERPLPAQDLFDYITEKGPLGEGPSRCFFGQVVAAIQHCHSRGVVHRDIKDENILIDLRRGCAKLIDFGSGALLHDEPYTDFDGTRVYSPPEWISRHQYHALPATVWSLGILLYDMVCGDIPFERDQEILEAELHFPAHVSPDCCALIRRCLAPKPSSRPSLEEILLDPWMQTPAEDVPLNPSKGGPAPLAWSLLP
Protocol: as §1

EphA4 = EphA4 (Homo sapiens (Human), UniProt P54764)
Protocol: as §1

MAPKAP-K5 = MAPKAP-K5 (Homo sapiens (Human), UniProt Q8IW41)
Protocol: as §1

NEK11 = NEK11 (Homo sapiens (Human), UniProt Q8NG66)
Protocol: as §1

MSSK1 = MSSK1 (Homo sapiens (Human), UniProt Q9UPE1)
Protocol: as §1

IKKalpha = IKKalpha (Homo sapiens (Human), UniProt O15111)
Protocol: as §1

CK1gamma3 = CK1gamma3 (Homo sapiens (Human), UniProt Q9Y6M4)
Protocol: as §1

SRPK1 = SRPK1 (Homo sapiens (Human), UniProt Q96SB4)
Protocol: as §1

p38gamma = p38gamma (Homo sapiens (Human), UniProt P53778)
Protocol: as §1

MAPKAP-K2 = MAPKAP-K2 (Homo sapiens (Human), UniProt P49137)
Protocol: as §1

Plk2 = Plk2 (Homo sapiens (Human), UniProt Q9NYY3)
Plk2, sequence (Q9NYY3 whole entry): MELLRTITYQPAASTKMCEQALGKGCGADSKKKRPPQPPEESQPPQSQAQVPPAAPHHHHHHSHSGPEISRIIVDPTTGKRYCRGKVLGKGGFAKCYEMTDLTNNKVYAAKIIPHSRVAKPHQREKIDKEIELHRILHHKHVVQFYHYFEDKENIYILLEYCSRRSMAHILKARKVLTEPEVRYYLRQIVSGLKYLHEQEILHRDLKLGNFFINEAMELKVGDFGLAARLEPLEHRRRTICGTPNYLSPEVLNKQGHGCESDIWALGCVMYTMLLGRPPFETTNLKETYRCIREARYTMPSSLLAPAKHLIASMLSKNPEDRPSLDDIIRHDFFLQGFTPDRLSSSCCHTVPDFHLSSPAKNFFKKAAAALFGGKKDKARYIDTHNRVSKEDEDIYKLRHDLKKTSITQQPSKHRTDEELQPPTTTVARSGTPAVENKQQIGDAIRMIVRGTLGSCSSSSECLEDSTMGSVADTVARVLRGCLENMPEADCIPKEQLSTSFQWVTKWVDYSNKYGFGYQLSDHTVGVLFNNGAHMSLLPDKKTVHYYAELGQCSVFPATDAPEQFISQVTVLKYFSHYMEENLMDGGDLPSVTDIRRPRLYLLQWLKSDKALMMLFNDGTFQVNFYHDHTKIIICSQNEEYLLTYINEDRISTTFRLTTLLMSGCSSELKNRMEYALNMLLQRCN
Protocol: as §1

SGK3 = SGK3 (Homo sapiens (Human), UniProt Q96BR1)
Protocol: as §1

AKT2 = AKT2 (Homo sapiens (Human), UniProt P31751)
Protocol: as §1

Tie2 = Tie2 (Homo sapiens (Human), UniProt Q02763)
Protocol: as §1

MKK7 = MKK7 (Homo sapiens (Human), UniProt O14733)
Protocol: as §1

EphA5 = EphA5 (Homo sapiens (Human), UniProt P54756)
Protocol: as §1

Plk3 = Plk3 (Homo sapiens (Human), UniProt Q9H4B4)
Protocol: as §1

| Compound | Avg POC (SGK2) [POC] | Avg POC (ARK5) [POC] | Avg POC (Syk) [POC] | Avg POC (CDK5/p35) [POC] | Avg POC (DMPK) [POC] | Avg POC (ULK3) [POC] | Avg POC (Met) [POC] | Avg POC (mTOR) [POC] | Avg POC (MST1) [POC] | Avg POC (LIMK1) [POC] | Avg POC (PTK5) [POC] | Avg POC (CK1_y) [POC] | Avg POC (BrSK1) [POC] | Avg POC (ALK4) [POC] | Avg POC (DYRK2) [POC] | Avg POC (Mer) [POC] | Avg POC (AKT3) [POC] | Avg POC (Flt3) [POC] | Avg POC (Txk) [POC] | Avg POC (BLK) [POC] | further results |
| --- | --- | --- | --- | --- | --- | --- | --- | --- | --- | --- | --- | --- | --- | --- | --- | --- | --- | --- | --- | --- | --- |
| COCCN1C[C@@H](NC(=O)Nc2c(C)c(-c3cnc(C)nc3)nn2-c2ccccc2)[C@H](c2cc(F)cc(F)c2)C1 [Example 14, 1-((3S,4R)-4-(3,5-difluorophenyl)-1-(2-methoxyethyl)pyrrolidin-3-yl)-3-(4-methyl-3-(2-methylpyrimidin-5-yl)-1-phenyl-1H-pyrazol-5-yl)urea] | 100 | 85 | 88 | 115.5 | 105 | 98 | 96.5 | 102.5 | 97.5 | 98 | 91 | 97.5 | 94 | 115 | 85 | 78 | 104 | 90 | 98.5 | 91.5 | Avg POC (Yes): 55.5 POC; Avg POC (GSK3beta): 114.5 POC; Avg POC (TEC Activated): 83.5 POC; Avg POC (Pim-2): 103.5 POC; Avg POC (EphA4): 103.5 POC; Avg POC (MAPKAP-K5): 123.5 POC; Avg POC (NEK11): 91 POC; Avg POC (MSSK1): 109 POC; Avg POC (IKKalpha): 118.5 POC; Avg POC (CK1gamma3): 95 POC; Avg POC (SRPK1): 109.5 POC; Avg POC (p38gamma): 92.5 POC; Avg POC (MAPKAP-K2): 101 POC; Avg POC (Plk2): 102 POC; Avg POC (SGK3): 107 POC; Avg POC (AKT2): 119.5 POC; Avg POC (Tie2): 71 POC; Avg POC (MKK7): 111 POC; Avg POC (EphA5): 101.5 POC; Avg POC (Plk3): 93.5 POC |
| COCCN1C[C@@H](NC(=O)Nc2c(C)c(-c3ccnc(C)c3)nn2-c2ccccc2)[C@H](c2ccc(F)c(F)c2)C1 [Example 2, 1-((3S,4R)-4-(3,4-difluorophenyl)-1-(2-methoxyethyl)pyrrolidin-3-yl)-3-(4-methyl-3-(2-methylpyridin-4-yl)-1-phenyl-1H-pyrazol-5-yl)urea] | 99 | 89 | 86 | 113 | 98.5 | 100 | 106 | 108.5 | 94 | 100 | 108 | 103 | 104 | 112.5 | 90.5 | 90.5 | 110 | 119.5 | 99.5 | 92 | Avg POC (Yes): 104 POC; Avg POC (GSK3beta): 108 POC; Avg POC (TEC Activated): 107 POC; Avg POC (Pim-2): 86.5 POC; Avg POC (EphA4): 108.5 POC; Avg POC (MAPKAP-K5): 100 POC; Avg POC (NEK11): 97 POC; Avg POC (MSSK1): 118 POC; Avg POC (IKKalpha): 121 POC; Avg POC (CK1gamma3): 87.5 POC; Avg POC (SRPK1): 97.5 POC; Avg POC (p38gamma): 92 POC; Avg POC (MAPKAP-K2): 111 POC; Avg POC (Plk2): 99.5 POC; Avg POC (SGK3): 106 POC; Avg POC (AKT2): 113 POC; Avg POC (Tie2): 71.5 POC; Avg POC (MKK7): 97.5 POC; Avg POC (EphA5): 102.5 POC; Avg POC (Plk3): 101 POC |
